In patent publication US20180085452A1, “MATRIX-EMBEDDED TOLERANCE-PROMOTING ADJUVANTS FOR SUBCUTANEOUS IMMUNOTHERAPY” (Tolerogenics S.a.r.l,, priority 2016, published 2018):
In brackets after ≈: the same amount, converted by molar mass. Several values for one entry are separate records, joined by “and”; a condition that tells them apart may be missing. Equal entries are not always repeated. Entries after “also recorded” stand apart in the source; their conditions may differ. Where two headings read alike, the source gives them in different places.

Tests used:
[1] = cited from earlier work
[2] = during the first 24 hours; EP14075015.9; cited from earlier work
phagocytes = settings: approximately a threefold increase; cited from earlier work
[3] = in vitro release of DexP from PLGA-PEG-PLGA hydrogel; assay type: physicochemical; settings: 37° C., PBS
Procedure: A 20 mM stock solution of DexP in PBS (10.3 mg/ml; MW 516.4; Sigma-Aldrich) is diluted 1:40 in PBS (final concentration: 0.5 mM), and 20 μl of the diluted stock solution is combined with 160 μl of 25% gel solution and 20 μl of 10× PBS (final concentration of DexP: 0.05 mM).
The mixture of is incubated for 2 minutes at 37° C. to induce gelling and overlayed with 200 μl of 1× PBS. At frequent time points the supernatant is removed by pipetting and stored at 4° C. The removed supernatant is replaced by fresh 200 μl of 1× PBS. Controls of the same concentration of DexP in 1× PBS without gel are incubated and sampled in parallel.
Released DexP is determined with a spectrophotometric method (Singh and Verma, 2008). The method involves oxidation of the corticosteroid by iron (III) and subsequent complexation of iron (II) with potassium hexacynoferate (III), forming a bluish green coloured complex with maximum absorbance at 780 nm (Beer's law range: 10-50 μg/ml; molar absorptivity (M^−1cm^−1): for DexP 0.55×10^4).

rheumatoid arthritis [4] = tested on: rheumatoid arthritis; parameters: patients going into remission: dose or concentration left out as unconfirmed; settings: on methotrexate therapy, cited from earlier work
[5] = rodents; cited from earlier work
[6] = cited from earlier work; remark: listed apart in the source
rats = settings: cited from earlier work
[7] = cited from earlier work; remark: listed apart in the source
calcium metabolism = settings: in vivo studies in rats; cited from earlier work
[8] = cited from earlier work; remark: listed apart in the source
[9] = tested on: experimental autoimmune encephalomyelitis (EAE); settings: i.p. 5 μg/kg body weight every 2 days; cited from earlier work
mice = settings: cited from earlier work
[10] = cited from earlier work; remark: listed apart in the source
[11] = tested on: TNFR1-mediated activation of NF-κB; settings: cited from earlier work
rheumatoid arthritis [12] = settings: placebo 29.2%, cited from earlier work
[13] = cited from earlier work; remark: listed apart in the source
patients with RA = settings: placebo 22.0%, cited from earlier work
type 1 diabetes = settings: cited from earlier work

In the case of `Nc1ncnc2c1ncn2[C@@H]1O[C@H](COP(=O)(O)OP(=O)(O)OP(=O)(O)O)[C@@H](O)[C@H]1O` [ATP], the solubility in ethanol ([1]; 25° C.) is given as “less than 1 mg/ml”, the “released from the hydrogel” value [2] is given as “approx. 60%” and the “concentration effecting maximal migration of phagocytes” value (phagocytes) is given as “about 100 nM”.

With `C[C@@H]1C[C@H]2[C@@H]3CCC4=CC(=O)C=C[C@]4(C)[C@@]3(F)[C@@H](O)C[C@]2(C)[C@@]1(O)C(=O)COP(=O)(O)O` [DexP, dexamethasone sodium phosphate] the “hydrogel-embedded DexP released” value ([3]; after 2 days) was 80-90% and the “hydrogel-embedded DexP released” value ([3]; within the first 6 hours) was 30-50%.

For `O=c1ccn([C@@H]2O[C@H](COP(=O)(O)OP(=O)(O)OP(=O)(O)O)[C@@H](O)[C@H]2O)c(=O)[nH]1` [UTP], the “released from the hydrogel” value [2] is given as “approx. 60%” and the “concentration effecting maximal migration of phagocytes” value (phagocytes) is given as “about 100 nM”.

For `C=C1/C(=C\C=C2/CCC[C@]3(C)[C@@H]([C@H](C)CCCC(C)C)CC[C@@H]23)C[C@@H](O)C[C@@H]1O` [alfacalcidiol], the “patients with improvement of disease activity” value (rheumatoid arthritis [4]; 2 pg/day for 3 months) is listed as 89% and the “patients going into remission” value (rheumatoid arthritis [4]; for 3 months) is listed as 45%.

For `C=C1CC[C@H](O)C/C1=C/C=C1\CCC[C@]2(C)[C@@H]([C@H](C)CCCC(C)(C)O)CC[C@@H]12` [calcidiol, 25-hydroxyvitamin D3], the “plasma concentrations tolerated with normo-calcemia” value [5] is given as 250 to 1000 nM, the “plasma concentration that can produce vitamin D toxicity” value ([6]; Jones (2008)) is given as “above 0.75 μM; also recorded: approx. 300 ng/ml” and the “calcidiol level at which toxicity occurs” value ([6]; Shephard and DeLuca (1980)) is given as ≥ 500 ng/ml and approx. 1.25 μM.

In the case of `C=C1/C(=C\C=C2/CCC[C@]3(C)[C@@H]([C@H](C)/C=C/[C@@H](O)C4CC4)CC[C@@H]23)C[C@@H](O)C[C@@H]1O` [calcipotriol], the “single s.c. dose up to which no death occurred” value (rats) is given as ≤ 540 μg/kg body weight, the “applied dose absorbed systemically” value ([7]; ointment applied to normal skin) is given as ~5% and the “applied dose absorbed systemically” value ([7]; ointment applied topically to psoriasis plaques) is given as “approximately 6%”. The “effect on calcium metabolism, times less than calcitriol” value (calcium metabolism) was 100-200 times, the “rate of clearance, times higher than for calcitriol” value ([8]; rat, in vivo) was “approximately 140 times” and the “half-life in circulation (serum half-life)” value ([8]; rats) was 4 min.

In the case of `C=C1/C(=C\C=C2/CCC[C@]3(C)[C@@H]([C@H](C)CCCC(C)(C)O)CC[C@@H]23)C[C@@H](O)C[C@@H]1O` [calcitriol, 1α,25-dihydroxyvitamin D3], the “solubility in a 1:5 solution of ethanol:PBS” value ([1]; 1:5 ethanol:PBS, pH 7.2) is listed as “approx. 0.15 mg/ml”, the “treated mice in which appearance of paralysis was prevented” value [9] is listed as 70% and the “dose that can be administered as a single bolus i.p. injection” value (mice; in 0.2 ml of normal saline) is listed as “up to 500 ng/mouse”. For the same molecule, the “dose above which mice can become hypercalcemic on day 2 or day 3” value (mice; single bolus i.p.) was “higher than 750 ng/mouse” and the “single oral dose relatively well tolerated (only grade 1 to 2 adverse events)” value [10] was “up to 165 μg”.

In the case of `C[C@@H]1CCN(C(=O)CC#N)C[C@@H]1N(C)c1ncnc2[nH]ccc12` [free base of tofacitinib, tofacitinib], the “solubility in DMSO” value ([1]; DMSO) is listed as 100 mg/mL (≈ 320 mM), the solubility in ethanol [1] is listed as 100 mg/mL (≈ 320 mM) and the “maximum solubility in plain water” value ([1]; plain water, estimated) is listed as 10-20 μM and 3.12-6.24 μg/ml.

In the case of `O=C([O-])c1ccccc1O.[Na+]` [sodium salicylate], the “dose required for inhibition of TNFR1-mediated activation of NF-κB” value [11] is listed as 10 to 20 mM.

For `C[C@@H]1CCN(C(=O)CC#N)C[C@@H]1N(C)c1ncnc2[nH]ccc12` [tofacitinib], the “ACR20 response rate by week 6” value (rheumatoid arthritis [12]; 5 mg twice daily) is listed as 70.5%, the “ACR20 response rate by week 6” value (rheumatoid arthritis [12]; 15 mg twice daily) is listed as 81.2% and the “ACR20 response rate by week 6” value (rheumatoid arthritis [12]; 30 mg twice daily) is listed as 76.8%. For the same molecule, the in vivo half-life [13] was 2 to 3 h, the “ACR20 response at week 12” value (patients with RA; 3 mg orally twice a day) was 39.2% and the “ACR20 response at week 12” value (patients with RA; 5 mg orally twice a day) was 59.2%. For the same molecule, the “ACR20 response at week 12” value (patients with RA; 10 mg orally twice a day) was 70.5% and the “ACR20 response at week 12” value (patients with RA; 15 mg orally twice a day) was 71.9%.

For vitamin D, the “relative risk of type 1 diabetes over the subsequent 30 years” value (type 1 diabetes; doses of exactly 50 μg/day) is listed as 0.22 and the “relative risk of type 1 diabetes over the subsequent 30 years” value (type 1 diabetes; doses of over 50 μg/day (2000 IU/d) during infancy) is listed as 0.14.
